For 34 compounds, EC50 results are on record in patent US12655156B2, “Oxadiazolopyrazines and oxadiazolopyridines useful as mitochondrial uncouplers” (Virginia Tech Intellectual Properties, Inc., priority 2018, dated 2026).

pEC50: −log10 of the molar value.

The subject of this test is whole cells (NMuLi, C2C12, and L6 cells, isolated cardiomyocytes, human primary fibroblasts). The experiment in a line: Oxygen consumption rate (OCR) in whole cells, Seahorse XF-24 Flux Analyzer. Type of test: cell-based. Particulars: increase in OCR; binned EC50 values. The protocol: Biological activities of the compounds synthesized is determined by determining increase in oxygen consumption rate (OCR).
Oxygen consumption rate (OCR) in whole cells is measured in general accordance with the method of Kenwood B M et al. (Mol. Met. (2014) 3:114-123).
OCR is measured using a Seahorse XF-24 Flux Analyzer (Seahorse Biosciences, North Billerica, MA). NMuLi, C2C12, and L6 cells are seeded in a Seahorse 24-well tissue culture plate at a density of 3.5×10^4 cells/well, isolated cardiomyocytes at a density of 4×10^4 cells/well, and human primary fibroblasts at a density of 1.1×10^4 cells/well. The cells are then allowed to adhere for 24 h. Prior to the assay, the media is changed to unbuffered DMEM containing pyruvate and glutamine (Gibco #12800-017, pH=7.4 at 37° C.) and the cells are equilibrated for 30 mins at 37°° C. Compounds are injected during the assay and OCR is measured using 2 min measurement periods.
2-3 wells are used per condition and averaged over three plates (n=6-9). Statistical significance is determined by two-way ANOVA with Bonferroni's posttest.
Activities are reported as binned EC50 values: A=5 μM or less; B=>5 to 20 μM; C=over 20 μM; NA=not active.
In turn, `Oc1nc2nonc2nc1Nc1ccc(OC(F)(F)F)cc1Cl` [1-41, 6-((2-Chloro-4-(trifluoromethoxy)phenyl)amino)-[1,2,5]oxadiazolo[3,4-b]pyrazin-5-ol] had a pEC50 of no less than 5.30. The same measure for `Oc1nc2nonc2nc1Nc1ccc(Cl)cc1` [1-21, 6-((4-Chlorophenyl)amino)-[1,2,5]oxadiazolo[3,4-b]pyrazin-5-ol]: 4.70 to 5.30; for `Oc1nc2nonc2nc1Nc1ccc(C(O)(C(F)(F)F)C(F)(F)F)cc1` [1-26, 6-((4-(1,1,1,3,3,3-Hexafluoro-2-hydroxypropan-2-yl)phenyl)amino)-[1,2,5]oxadiazolo[3,4-b]pyrazin-5-ol]: less than 4.70. On to `Oc1nc2nonc2nc1Nc1ccc(I)cc1OC(F)(F)F` [1-35, 6-((4-Iodo-2-(trifluoromethoxy)phenyl)amino)-[1,2,5]oxadiazolo[3,4-b]pyrazin-5-ol], for which the pEC50 is no less than 5.30.

In turn, `Oc1nc2nonc2nc1Nc1cccc(-c2ccc(F)c(C(F)F)c2)c1` [1-114, 6-((3′-(difluoromethyl)-4′-fluoro-[1,1′-biphenyl]-3-yl)amino)-[1,2,5]oxadiazolo[3,4-b]pyrazin-5-ol] gave a pEC50 of no less than 5.30. Then `O=[N+]([O-])c1cccc(Nc2nc3nonc3nc2O)c1` [1-206, 6-((3-nitrophenyl)amino)-[1,2,5]oxadiazolo[3,4-b]pyrazin-5-ol], with less than 4.70; and `CCCCCCCCNc1nc2nonc2nc1O` [1-74, 6-(octylamino)-[1,2,5]oxadiazolo[3,4-b]pyrazin-5-ol], with no less than 5.30.

As to `Oc1nc2nonc2nc1Nc1ccc(-c2ccc(OC(F)(F)F)cc2)cc1` [1-105, 6-((4′-(trifluoromethoxy)-[1,1′-biphenyl]-4-yl)amino)-[1,2,5]oxadiazolo[3,4-b]pyrazin-5-ol], the pEC50 was 4.70 to 5.30. Then `Cc1ccc(Nc2nc3nonc3nc2O)cc1` [1-58, 6-(p-Tolylamino)-[1,2,5]oxadiazolo[3,4-b]pyrazin-5-ol], with less than 4.70. Compound `Oc1nc2nonc2nc1NC1C2CC3CC(C2)CC1C3` [1-85, 6-(((1R,3R,5R,7R)-adamantan-2-yl)amino)-[1,2,5]oxadiazolo[3,4-b]pyrazin-5-ol] showed a pEC50 of less than 4.70.

`Oc1nc2nonc2nc1Nc1ccc(-c2ccc(OC(F)F)cc2)cc1` [1-108, 6-((4′-(difluoromethoxy)-[1,1′-biphenyl]-4-yl)amino)-[1,2,5]oxadiazolo[3,4-b]pyrazin-5-ol] showed a pEC50 of no less than 5.30. Then `Oc1nc2nonc2nc1Nc1cc(C(F)(F)F)cc(C(F)(F)F)c1` [1-34, 6-((3,5-Bis(trifluoromethyl)phenyl)amino)-[1,2,5]oxadiazolo[3,4-b]pyrazin-5-ol], with 4.70 to 5.30. Then `Oc1nc2nonc2nc1Nc1ccc(Br)cc1F` [1-43, 6-((4-Bromo-2-fluorophenyl)amino)-[1,2,5]oxadiazolo[3,4-b]pyrazin-5-ol], with no less than 5.30; and `Oc1nc2nonc2nc1NC(c1ccccc1)c1ccccc1` [1-79, 6-(benzhydrylamino)-[1,2,5]oxadiazolo[3,4-b]pyrazin-5-ol], with less than 4.70. The same measure for `CCCCCc1ccc(Nc2nc3nonc3nc2O)c(F)c1` [1-66, 6-((2-Fluoro-4-pentylphenyl)amino)-[1,2,5]oxadiazolo[3,4-b]pyrazin-5-ol]: no less than 5.30. Turning to `Oc1nc2nonc2nc1Nc1cccc(-c2ccc3c(c2)OCO3)c1` [1-120, 6-((3-(benzo[d][1,3]dioxol-5-yl)phenyl)amino)-[1,2,5]oxadiazolo[3,4-b]pyrazin-5-ol], the pEC50 is no less than 5.30.

Take `N#Cc1cc(-c2ccc(Nc3nc4nonc4nc3O)cc2)cs1` [1-123, 4-(4-((6-hydroxy-[1,2,5]oxadiazolo[3,4-b]pyrazin-5-yl)amino)phenyl)thiophene-2-carbonitrile]: the pEC50 was no less than 5.30. The same measure for `CCCCC#Cc1ccc(Nc2nc3nonc3nc2O)c(F)c1` [1-63, 6-((2-Fluoro-4-(hex-1-yn-1-yl)phenyl)amino)-[1,2,5]oxadiazolo[3,4-b]pyrazin-5-ol]: no less than 5.30; for `CCCCOc1cccc(Nc2nc3nonc3nc2O)c1` [1-96, 6-((3-butoxyphenyl)amino)-[1,2,5]oxadiazolo[3,4-b]pyrazin-5-ol]: no less than 5.30. Then `Oc1nc2nonc2nc1Nc1ccc(OC(F)(F)F)cc1Br` [1-38, 6-((2-Bromo-4-(trifluoromethoxy)phenyl)amino)-[1,2,5]oxadiazolo[3,4-b]pyrazin-5-ol], with no less than 5.30; and `Oc1nc2nonc2nc1Nc1ccc(OC(F)(F)C(F)F)cc1` [1-28, 6-((4-(1,1,2,2-Tetrafluoroethoxy)phenyl)amino)-[1,2,5]oxadiazolo[3,4-b]pyrazin-5-ol], with 4.70 to 5.30. Compound `Oc1nc2nonc2nc1Nc1ccc(OC(F)(F)F)c(F)c1` [1-11, 6-((3-Fluoro-4-(trifluoromethoxy)phenyl)amino)-[1,2,5]oxadiazolo[3,4-b]pyrazin-5-ol] showed a pEC50 of no less than 5.30. With `Oc1nc2nonc2nc1Nc1ccc2ccccc2c1` [1-44, 6-(Naphthalen-2-ylamino)-[1,2,5]oxadiazolo[3,4-b]pyrazin-5-ol], the pEC50 is no less than 5.30. `CCCC#Cc1ccc(Nc2nc3nonc3nc2O)c(F)c1` [1-62, 6-((2-Fluoro-4-(pent-1-yn-1-yl)phenyl)amino)-[1,2,5]oxadiazolo[3,4-b]pyrazin-5-ol] showed a pEC50 of no less than 5.30.

`Oc1nc2nonc2nc1Nc1ccc(OC(F)(F)F)c(Cl)c1` [1-24, 6-((3-Chloro-4-(trifluoromethoxy)phenyl)amino)-[1,2,5]oxadiazolo[3,4-b]pyrazin-5-ol] showed a pEC50 of no less than 5.30.

`Oc1nc2nonc2nc1Nc1cccc(C(F)(F)F)c1F` [1-37, 6-((2-Fluoro-3-(trifluoromethyl)phenyl)amino)-[1,2,5]oxadiazolo[3,4-b]pyrazin-5-ol] had a pEC50 of no less than 5.30. The compound `Oc1nc2nonc2nc1Nc1ccccc1OC(F)(F)F` [1-8, 6-((2-(Trifluoromethoxy)phenyl)amino)-[1,2,5]oxadiazolo[3,4-b]pyrazin-5-ol] showed a pEC50 of no less than 5.30. Then `Oc1nc2nonc2nc1Nc1cccc(F)c1F` [1-14, 6-((2,3-Difluorophenyl)amino)-[1,2,5]oxadiazolo[3,4-b]pyrazin-5-ol], with 4.70 to 5.30; and `Oc1nc2nonc2nc1NC1CCCCC1` [1-212, 6-(cyclohexylamino)-[1,2,5]oxadiazolo[3,4-b]pyrazin-5-ol], with less than 4.70; and `Oc1nc2nonc2nc1Nc1ccc(-c2ccc(F)cc2)cc1F` [1-124, 6-((3,4′-difluoro-[1,1′-biphenyl]-4-yl)amino)-[1,2,5]oxadiazolo[3,4-b]pyrazin-5-ol], with no less than 5.30. Then `Oc1nc2nonc2nc1Nc1ccc(C(F)(F)F)nc1` [1-208, 6-((6-(trifluoromethyl)pyridin-3-yl)amino)-[1,2,5]oxadiazolo[3,4-b]pyrazin-5-ol], with less than 4.70. As to `Oc1nc2nonc2nc1Nc1ccccc1C(F)(F)F` [1-6, 6-((2-(Trifluoromethyl)phenyl)amino)-[1,2,5]oxadiazolo[3,4-b]pyrazin-5-ol], the pEC50 was 4.70 to 5.30. The same measure for `Oc1nc2nonc2nc1Nc1ccccc1Cl` [1-20, 6-((2-Chlorophenyl)amino)-[1,2,5]oxadiazolo[3,4-b]pyrazin-5-ol]: 4.70 to 5.30; for `CC(=O)COc1nc2nonc2nc1Nc1ccc(-c2ccc(F)cc2)cc1` [1-190, 1-((6-((4′-fluoro-[1,1′-biphenyl]-4-yl)amino)-[1,2,5]oxadiazolo[3,4-b]pyrazin-5-yl)oxy)propan-2-one]: no less than 5.30.
